Assay results: patent publication US10219516B2, “Molecules having pesticidal utility, and intermediates, compositions, and processes, related thereto” (priority 2015, dated 2019)
Read-outs that look alike come from different tables or passages of the source.

Assays:
Type in all cases: in vivo
[1] = test system: Cabbage Looper (Trichoplusia ni, TRIPNI); assay: Bioassay on Cabbage Looper (CL), 128-well diet tray assay; settings: Trichoplusia ni
Procedure, shortened: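 Second-instar larvae, one to five per well, were placed on artificial diet surface-treated with 50 μg/cm^2 test molecule applied in 90:10 acetone-water and dried, eight wells per molecule. Trays were covered, vented and held at 25° C., 14:10 light-dark for five to seven days; percent mortality per well was averaged.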

[2] = test system: Green Peach Aphid (Myzus persicae, MYZUPE); assay: Bioassay on Green Peach Aphid (GPA), foliar spray on infested cabbage seedlings; settings: 72 h
Method: Certain molecules disclosed in this document were tested against GPA using procedures described in the following example. In the reporting of the results, the “GPA & YFM Rating Table” was used (See Table Section).
Cabbage seedlings grown in 3-inch pots, with 2-3 small (3-5 cm) true leaves, were used as test substrate. The seedlings were infested with 20-50 GPA (wingless adult and nymph stages) one day prior to chemical application. Four pots with individual seedlings were used for each treatment. Test molecules (2 mg) were dissolved in 2 mL of acetone/methanol (1:1) solvent, forming stock solutions of 1000 ppm test molecule. The stock solutions were diluted 5× with 0.025% Tween 20 in water to obtain the solution at 200 ppm test molecule. A hand-held aspirator-type sprayer was used for spraying a solution to both sides of […] leaves until runoff. Reference plants (solvent check) were sprayed with the diluent only containing 20% by volume of acetone/methanol (1:1) solvent. Treated plants were held in a holding room for three days at approximately 25° C. and ambient relative humidity (RH) prior to grading. Evaluation was conducted by counting the number of live aphids per plant under a microscope. Percent control was measured using Abbott's correction formula (W. S. Abbott, “A Method of Computing the Effectiveness of an Insecticide” 3. Econ. Entomol. 18 (1925), pp. 265-267) as follows. Corrected % Control=100*(X−Y)/X where X=No. of live aphids on solvent check plants and Y=No. of live aphids on treated plants. The results are indicated in the table entitled “Table ABC: Biological Results” (See Table Section).

[3] = test system: Beet Armyworm (Spodoptera exigua, LAPHEG); assay: Bioassay on Beet Armyworm (BAW), 128-well diet tray assay
Procedure, shortened: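 In a 128-well format, eight wells per compound received a surface dose of 50 μg/cm^2 on artificial diet. After drying, each well got one to five second instar larvae, held at 25° C. with 14:10 photoperiod. Mortality percentages after five to seven days were averaged.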

[4] = test system: Yellow Fever Mosquito (Aedes aegypti, AEDSAE); assay: Bioassay on Yellow Fever Mosquito (YFM), 96-well plate larval assay; settings: for YFM (Biological Results, rating): Species YFM (Yellow Fever Mosquito); for YFM rating: Yellow Fever Mosquito, 96-well plate larval assay
Procedure, shortened: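 Compound stocks at 4000 ppm in DMSO were diluted with 90:10 water/acetone, and 15 μL aliquots were dispensed into six replicate plates. About 1-day-old larvae in liver-powder water were added per well. Plates were covered and held at room temperature for 3 days before each well was scored for mortality.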

[5] = Species CL (Cabbage Looper), read-out: CL (Biological Results, rating)
[6] = foliar, Species GPA (Green Peach Aphid), read-out: GPA (Biological Results, rating)
[7] = Species BAW (Beet Armyworm), read-out: BAW (Biological Results, rating)
[8] = Green Peach Aphid, foliar spray on cabbage seedlings, read-out: GPA rating
[9] = Cabbage Looper, 128-well diet tray assay, read-out: CL rating
[10] = Beet Armyworm, 128-well diet tray assay, read-out: BAW rating

Structure (SMILES) | pest or weed control at 50 µg/cm2 [1, 5] | pest or weed control at 200 µg/mL [2, 6] | pest or weed control at 50 µg/cm2 [3, 7] | pest or weed control at 200 µg/mL [2, 8] | pest or weed control at 50 µg/cm2 [1, 9] | pest or weed control at 50 µg/cm2 [3, 10] | YFM (Biological Results, rating) [4] | YFM rating [4]
COc1ccc(NC(=O)c2cc(NC(=O)[C@H]3[C@H](c4cc(Cl)cc(Cl)c4)C3(Cl)Cl)ccc2Cl)c(F)c1 (relative stereo) [F150, trans-2-Chloro-5-(2,2-dichloro-3-(3,5-dichlorophenyl)cyclopropane-1-carboxamido)-N-(2-fluoro-4-methoxyphenyl)benzamide] | 50 to 100% | 80 to 100% | 50 to 100% |  |  |  |  | 
CC(C)(C)OC(=O)Nc1cc(C(F)(F)F)cc(NC(=O)c2cc(NC(=O)[C@H]3[C@H](c4cc(Cl)cc(Cl)c4)C3(Cl)Cl)ccc2Cl)n1 (relative stereo) [F507, tert-Butyl (6-(2-chloro-5-(trans-2,2-dichloro-3-(3,5-dichlorophenyl)cyclopropane-1-carboxamido)benzamido)-4-(trifluoromethyl)pyridin-2-yl)carbamate] |  |  |  | 0 to 80% |  |  |  | 
COc1ccc(NC(=O)[C@H]2[C@H](c3cc(Cl)cc(Cl)c3)C2(Cl)Cl)cc1C(=O)Nc1ccc(F)cc1 (relative stereo) [F128, trans-5-(2,2-Dichloro-3-(3,5-dichlorophenyl)cyclopropane-1-carboxamido)-N-(4-fluorophenyl)-2-methoxybenzamide] | 50 to 100% | 0 to 80% | 0 to 50% |  |  |  |  | 
O=C(Nc1ccc(F)cc1)c1cc(NC(=O)C2C(c3cc(Cl)cc(Cl)c3)C2(F)Cl)ccc1Cl (stereo not drawn) [PF153, 2-Chloro-5-(trans)-2-chloro-3-(3,5-dichlorophenyl)-2-fluorocyclopropane-1-carboxamido)-N-(4-fluorophenyl)benzamide] |  |  |  | 80 to 100% | 50 to 100% | 50 to 100% |  | 
O=C(Nc1ccc(F)nc1)c1cc(NC(=O)[C@H]2[C@H](c3cc(Cl)cc(Cl)c3)C2(Cl)Cl)ccc1Cl (relative stereo) [F142, trans-2-chloro-5-(2,2-dichloro-3-(3,5-dichlorophenyl)cyclopropane-1-carboxamido)-N-(6-fluoropyridin-3-yl)benzamide] | 50 to 100% | 80 to 100% | 50 to 100% |  |  |  |  | 
C=Cc1ccc([C@H]2[C@H](C(=O)Nc3ccc(Cl)c(C(=O)Nc4ccc(F)cc4)c3)C2(Cl)Cl)cc1Cl (relative stereo) [F289, 2-chloro-5-(trans-2,2-dichloro-3-(3-chloro-4-vinylphenyl)cyclopropane-1-carboxamido)-N-(4-fluorophenyl)benzamide] | 50 to 100% |  | 50 to 100% |  |  |  | A (80-100) | 
O=C(Nc1ccc(F)cc1F)c1cc(NC(=O)[C@@H]2[C@@H](c3ccc(F)c(Cl)c3)C2(Cl)Cl)ccc1Cl [F534, 2-Chloro-5-((1S,3S)-2,2-dichloro-3-(3-chloro-4-fluorophenyl)cyclopropane-1-carboxamido)-N-(2,4-difluorophenyl)benzamide] |  |  |  |  | 50 to 100% | 50 to 100% |  | A (80-100)
O=C(Nc1ccc2cc[nH]c2c1)c1cc(NC(=O)C2C(c3cc(Cl)cc(Cl)c3)C2(Cl)Cl)ccc1Cl (stereo not drawn) [PF126, 2-Chloro-5-(trans)-2,2-dichloro-3-(3,5-dichlorophenyl)cyclopropane-1-carboxamido)-N-(1H-indol-6-yl)benzamide] |  |  |  |  | 50 to 100% | 50 to 100% |  | A (80-100)
O=C(Nc1ccc2c(ccn2CCF)c1)c1cc(NC(=O)[C@H]2[C@H](c3cc(Cl)cc(Cl)c3)C2(Cl)Cl)ccc1Cl (relative stereo) [F496, 2-Chloro-5-(trans)-(2,2-dichloro-3-(3,5-dichlorophenyl)cyclopropane-1-carboxamido)-N-(1-(2-fluoroethyl)-1H-indol-5-yl)benzamide] |  |  |  |  | 50 to 100% | 50 to 100% |  | A (80-100)
CNc1ccc(NC(=O)c2cc(NC(=O)[C@H]3[C@H](c4cc(Cl)cc(Cl)c4)C3(Cl)Cl)ccc2Cl)cc1F (relative stereo) [F176, trans-2-Chloro-5-(2,2-dichloro-3-(3,5-dichlorophenyl)cyclopropane-1-carboxamido)-N-(3-fluoro-4-(methylamino)phenyl)benzamide] | 50 to 100% |  | 50 to 100% |  |  |  | A (80-100) | 
O=C(Nc1ccc(F)cc1F)c1cc(NC(=O)[C@H]2[C@H](c3ccc(F)c(C(F)F)c3)C2(Cl)Cl)ccc1Cl (relative stereo) [F561, 2-Chloro-5-(trans-2,2-dichloro-3-(3-(difluoromethyl)-4-fluorophenyl)cyclopropane-1-carboxamido)-N-(2,4-difluorophenyl)benzamide] |  |  |  |  | 50 to 100% | 50 to 100% |  | A (80-100)
O=C(Nc1ccc(-c2nccs2)cc1)c1cc(NC(=O)[C@H]2[C@H](c3cc(Cl)cc(Cl)c3)C2(Cl)Cl)ccc1Cl (relative stereo) [F461, trans-2-Chloro-5-(2,2-dichloro-3-(3,5-dichlorophenyl)cyclopropane-1-carboxamido)-N-(4-(thiazol-2-yl)phenyl)benzamide] |  |  |  |  | 50 to 100% | 50 to 100% |  | A (80-100)
O=C(Nc1ccc([N+](=O)[O-])cn1)c1cc(NC(=O)[C@H]2[C@H](c3cc(Cl)cc(Cl)c3)C2(Cl)Cl)ccc1Cl (relative stereo) [F293, 2-Chloro-5-(trans-2,2-dichloro-3-(3,5-dichlorophenyl)cyclopropane-1-carboxamido)-N-(5-nitropyridin-2-yl)benzamide] | 50 to 100% |  | 50 to 100% |  |  |  | A (80-100) | 
O=C(Nc1ccc(Cl)nc1)c1cc(NC(=O)[C@H]2[C@H](c3cc(Cl)cc(Cl)c3)C2(Cl)Cl)ccc1Cl (relative stereo) [F32, trans-2-Chloro-N-(6-chloropyridin-3-yl)-5-(2,2-dichloro-3-(3,5-dichlorophenyl)cyclopropane-1-carboxamido)benzamide] | 50 to 100% |  | 50 to 100% |  |  |  | A (80-100) | 
CN(C(=O)c1cc(NC(=O)[C@H]2[C@H](c3cc(Cl)cc(C(F)(F)F)c3)C2(Cl)Cl)ccc1Cl)c1ccc(F)cc1 (relative stereo) [F88, trans-2-Chloro-5-(2,2-dichloro-3-(3-chloro-5-(trifluoromethyl)phenyl)cyclopropane-1-carboxamido)-N-(4-fluorophenyl)-N-methylbenzamide] | 50 to 100% |  | 50 to 100% |  |  |  | B (More than 0-Less than 80) | 
Nc1ccc(F)c(NC(=O)c2cc(NC(=O)[C@H]3[C@H](c4ccc(F)c(Cl)c4)C3(Cl)Cl)ccc2Cl)c1 [F430, N-(5-Amino-2-fluorophenyl)-2-chloro-5-((1R,3R)-2,2-dichloro-3-(3-chloro-4-fluorophenyl)cyclopropane-1-carboxamido)benzamide] |  |  |  |  | 50 to 100% | 50 to 100% |  | A (80-100)
Nc1c(F)ccc(NC(=O)c2cc(NC(=O)[C@H]3[C@H](c4ccc(F)c(Cl)c4)C3(Cl)Cl)ccc2Cl)c1F [F317, N-(3-Amino-2,4-difluorophenyl)-2-chloro-5-((1R,3R)-2,2-dichloro-3-(3-chloro-4-fluorophenyl)cyclopropane-1-carboxamido)benzamide] | 50 to 100% |  | 50 to 100% |  |  |  | A (80-100) | 
O=C(Nc1ccc2cccnc2c1)c1cc(NC(=O)C2C(c3cc(Cl)cc(Cl)c3)C2(Cl)Cl)ccc1Cl (stereo not drawn) [F436, 2-Chloro-5-(trans)-2,2-dichloro-3-(3,5-dichlorophenyl)cyclopropane-1-carboxamido)-N-(quinolin-7-yl)benzamide] |  |  |  |  | 50 to 100% | 50 to 100% |  | B (More than 0-Less than 80)
